Data published in patent publication US20170102398A1, “PREDICTING AND REDUCING COGNITIVE DECLINE BASED ON GSK-3 LEVELS” (HUMANETICS CORPORATION, priority 2014, published 2017).

Assays:
[1] = tested on: rats; assay: acute toxicity studies in rats; format: in vivo, rat
Procedure: (§1) Additional studies of D-pinitol's safety and efficacy included mutagenicity (AMES) tests, which were negative. […] In a phase I safety and pharmacokinetic study of D-pinitol in AD subjects, the time to peak plasma levels was about 90 minutes after administration, and the elimination half-life (t1/2) was 10 hours.

[2] = solubility in water; format: physicochemical
Description: In some embodiments, the D-pinitol can be a component of a dietary supplement or a medical food (e.g., in combination with an edible oil), or a food for special dietary use. Medical foods are, by definition, formulated to be consumed or administered enterally under the supervision of a physician or other medical professional. The manufacture of medical foods typically is done in compliance with FDA Good Manufacturing Practices (GMP) requirements. The term “food for special dietary use” is defined by 21 C.F.R. §105.3, as applied to food for humans, as meaning • particular (as distinguished from general) uses of food, as follows: • (i) Uses for supplying particular dietary needs which exist by reason of a physical, physiological, pathological or other condition, including but not limited to the conditions of diseases, convalescence, pregnancy, lactation, allergic hypersensitivity to food, underweight, and overweight; • (ii) Uses for supplying particular dietary needs which exist by reason of age, including but not limited to the ages of infancy and childhood; • (iii) Uses for supplementing or fortifying the ordinary or usual diet with any vitamin, mineral, or other dietary property. Any such particular use of a food is a special dietary use, regardless of whether such food also purports to be or is represented for general use. […]

[3] = phase I safety and pharmacokinetic study in AD subjects; format: in vivo, human
Procedure: as §1

[4] = mutagenicity (AMES) tests
Procedure: as §1

[5] = subjects with insulin resistance, dosed daily with 20 mg/kg for 28 days; cited from earlier work

SMILES: CO[C@H]1[C@H](O)[C@@H](O)[C@@H](O)[C@H](O)[C@@H]1O [D-pinitol, 3-O-methyl-D-chiro-inositol]
- LD50 [1]: > 2000 mg/kg
- solubility in water [2]: soluble in water
- elimination half-life (t1/2) [3]: 10 h
- time to peak plasma levels ([3]; after administration): about 90 minutes
- mutagenicity (AMES) tests [4]: negative
- increase in plasma D-pinitol concentration as compared to baseline [5]: 48 fold
